Blank lines part the entries; values can stand above or below the molecule they belong to.
Assays:
[1] = Inhibition of his-tagged CTLA-4/CD80 (unknown origin) protein-protein interaction by TR-FRET assay; set-up: species or system Homo sapiens
[2] = Inhibition of CTLA-4/CD80 (unknown origin) protein-protein interaction; set-up: species or system Homo sapiens
[3] = molecular target: Programmed cell death protein 1/Programmed cell death 1 ligand 1 (Homo sapiens, UniProt Q9NZQ7); experiment: Inhibition of human PD-1/PD-L1 incubated for 1 hr by HTRF assay; type: protein-complex assay
Chain of Programmed cell death protein 1/Programmed cell death 1 ligand 1 (Q15116 whole entry, the tested form may be a part): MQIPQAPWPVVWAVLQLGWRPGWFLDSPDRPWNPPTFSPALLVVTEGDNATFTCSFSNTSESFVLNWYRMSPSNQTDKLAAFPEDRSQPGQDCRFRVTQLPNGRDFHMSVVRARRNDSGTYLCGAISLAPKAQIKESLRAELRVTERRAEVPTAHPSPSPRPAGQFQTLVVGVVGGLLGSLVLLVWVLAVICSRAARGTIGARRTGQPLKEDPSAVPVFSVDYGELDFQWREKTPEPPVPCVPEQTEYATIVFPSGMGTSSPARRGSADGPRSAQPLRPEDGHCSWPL
Chain of Programmed cell death protein 1/Programmed cell death 1 ligand 1 (Q9NZQ7 whole entry, the tested form may be a part): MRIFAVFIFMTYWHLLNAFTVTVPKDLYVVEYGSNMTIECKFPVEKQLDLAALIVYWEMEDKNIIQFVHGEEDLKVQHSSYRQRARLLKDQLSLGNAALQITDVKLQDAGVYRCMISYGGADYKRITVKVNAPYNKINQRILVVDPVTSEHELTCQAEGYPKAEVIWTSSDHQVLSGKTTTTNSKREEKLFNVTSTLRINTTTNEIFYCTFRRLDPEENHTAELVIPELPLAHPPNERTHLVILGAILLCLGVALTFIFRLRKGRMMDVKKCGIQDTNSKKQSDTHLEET

[4] = molecular target: T1, V-type immunoglobulin domain-containing suppressor of T-cell activation (Homo sapiens, UniProt Q9H7M9); experiment: Inhibition of N-terminal His-tagged human recombinant VISTA (1 to 161 residues) transfected in human Expi293 cells incubated for 60 mins by ELISA analysis; type: cell-based
T1 sequence (Q9H7M9 whole entry): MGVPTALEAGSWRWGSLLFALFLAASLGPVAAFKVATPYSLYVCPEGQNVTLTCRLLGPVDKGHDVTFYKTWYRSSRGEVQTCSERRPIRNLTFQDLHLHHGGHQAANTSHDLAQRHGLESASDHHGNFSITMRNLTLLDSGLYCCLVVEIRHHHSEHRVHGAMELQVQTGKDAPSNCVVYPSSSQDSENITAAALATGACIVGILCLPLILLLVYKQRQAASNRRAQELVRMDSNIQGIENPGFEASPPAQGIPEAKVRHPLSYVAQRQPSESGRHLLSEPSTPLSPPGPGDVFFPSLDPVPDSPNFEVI

[5] = Inhibition of VISTA/VSIG-3 (unknown origin) protein-protein interaction by TR-FRET assay
[6] = molecular target: T1, V-type immunoglobulin domain-containing suppressor of T-cell activation; experiment: biochemical
Description: Binding affinity to N-terminal His-tagged human recombinant VISTA (1 to 161 residues) transfected in human Expi293 cells assessed as dissociation constant incubated for 60 mins by SPR assay

[7] = Induction of PD-L1 degradation in human NCI-H460 cells transfected with siRNA ABCB1 incubated for 2 hrs by Western blot analysis; details: NCI-H460, 2 h
[8] = Inhibition of LAG-3/MHC-II (unknown origin) interaction by TR-FRET assay; set-up: species or system Homo sapiens
[9] = Inhibition of PD-L1 (unknown origin) by FRET assay; set-up: species or system Homo sapiens
[10] = Binding affinity to PD-L1 (unknown origin) assessed as dissociation constant; set-up: species or system Homo sapiens
Tubulin = experiment: Inhibition of tubulin polymerization (unknown origin); type: protein-complex assay, Homo sapiens
[11] = Inhibition of human PD-L1 by HTRF assay
[12] = Stability in mouse plasma assessed as half life; type: ADME, cell-free
MC-38 = experiment: Antitumor activity against mouse MC-38 cells implanted in C57BL/6N mouse assessed as reduction in tumor volume at 10 mg/kg, ip in presence of PD-L1 and measured after 10 days relative to control; type: functional; set-up: scale not given: the % may be the effect or the level left; details: time 10 day
[13] = Inhibition of PD-L1 (unknown origin) by HTRF assay; set-up: species or system Homo sapiens

IC50 [1]: 1 µM
SMILES: Clc1ccc(C2=NN(c3ccccc3)C(c3ccco3)C2)cc1 (centres undefined)

IC50 [2]: 1.9 µM
SMILES: COc1ccccc1C1CN(c2ccccc2)N=C1c1cccs1 (centres undefined)

SMILES: Cc1nc(C)c(C(=O)NNC(=O)Cc2ccccc2)cc1C(=O)NNC(=O)Cc1ccccc1
IC50 [3]: 0.00109 µM

SMILES: COc1ccc(-c2nc(N)nc(-c3cc(C)ccc3O)c2Cl)cc1
IC50 [3]: 0.00244 µM

IC50 [4]: 6.4 µM
SMILES: CN(C)c1n/c(=N/Cc2cccs2)ss1

IC50 [4]: 4.5 µM
IC50 [5]: 9.7 µM
Kd [6]: 6.2 µM
SMILES: CN(C)c1n/c(=N/Cc2ccco2)ss1

SMILES: C[C@@]1(C(=O)O)CC[C@]2(C)CC[C@]3(C)C4=CC(=O)c5c(cc(O)c(O)c5C=O)[C@]4(C)CC[C@@]3(C)[C@@H]2C1
DC50 [7]: < 5 µM

IC50 [1]: 4.1 µM
SMILES: Clc1ccc(C2CN(c3ccccc3)N=C2c2ccco2)cc1 (centres undefined)

IC50 [8]: 8.3 µM
SMILES: Cc1cc(C(=O)COc2ccc(NC(=O)c3ccco3)cc2)c(C)n1-c1ccccc1

IC50 [8]: > 50 µM
SMILES: CC(=O)Nc1ccc(OCC(=O)c2cc(C)n(C(C)C)c2C)cc1

IC50 [8]: 4.2 µM
SMILES: Cc1cc(C(=O)COc2ccc(NC(=O)c3ccco3)cc2)c(C)n1Cc1ccccc1

IC50 [4]: 1.1 µM
SMILES: Cc1c(-c2ccccc2)ccc2nc(-c3ccc(CNCCO)cc3)[nH]c12

IC50 [9]: 0.092 µM
Kd [10]: 0.098 µM
SMILES: Cc1cc(O)n(-c2ccccc2)n1

IC50 [2]: 1.3 µM
SMILES: O=C(CSc1ccccc1Cl)N1N=C(c2cccs2)CC1c1ccco1 (centres undefined)

IC50 [9]: 1.1 µM
Kd [10]: 1.2 µM
SMILES: Oc1cc(-c2cccc(C(F)(F)F)c2)nn1-c1ccccn1

IC50 [2]: 0.97 µM
SMILES: Clc1ccc(C2=NN(Cc3ccccc3)CC2c2ccccc2)cc1 (centres undefined)

IC50 (Tubulin): 16.1 µM
IC50 [11]: 0.0488 µM
SMILES: COc1ccc(/C=C\c2cc(OC)c(OC)c(OC)c2)cc1OCc1ccc(CC=O)cc1

DC50 [7]: < 5 µM
SMILES: N=c1[nH]c2c3c(c4[nH]c(=N)[nH]c4c2[nH]1)[C@@H](CNC(=O)c1cc(Br)c(Br)[nH]1)[C@@H]3CNC(=O)c1cc(Br)c(Br)[nH]1

IC50 [1]: 5.16 µM
SMILES: O=[N+]([O-])c1cccc(/C=N/OCc2coc(-c3cccc(F)c3)n2)c1

DC50 [7]: < 0.1 µM
SMILES: Cc1c(COc2ccc(CN3CCCCC3C(=O)NCCOCCNC(=O)CCCCCn3cc(CCCC(=O)NCCCC[C@@H]4NC(=O)[C@@H](Cc5ccc(O)cc5)NC(=O)[C@H](CC(=O)O)NC(=O)CNC(=O)[C@H](CCCNC(=N)N)NC4=O)nn3)cc2Br)cccc1-c1ccccc1 (some centres undefined)

IC50 [9]: 0.077 µM
Kd [10]: 0.11 µM
SMILES: Oc1cc(-c2ccc(Cl)cc2Cl)nn1-c1ccccn1

IC50 [4]: 256 µM
SMILES: Cc1cccc2nc(-c3cccc(CNCCO)c3)[nH]c12

IC50 [2]: 1.5 µM
SMILES: COc1ccc(-c2nc(CO/N=C/c3ccccc3Cl)co2)cc1

DC50 [7]: < 50 µM
SMILES: Cc1c(COc2ccc(CN3CCCCC3C(=O)NCCCn3cc(CCCC(=O)NCCCC[C@@H]4NC(=O)[C@@H](Cc5ccc(O)cc5)NC(=O)[C@H](CC(=O)O)NC(=O)CNC(=O)[C@H](CCCNC(=N)N)NC4=O)nn3)cc2Br)cccc1-c1ccccc1 (some centres undefined)

DC50 [7]: < 10 µM
SMILES: CCOC(=O)C1=C(COCCS)NC(C)=C(C(=O)OC)C1c1ccccc1Cl (centres undefined)

DC50 [7]: < 0.1 µM
SMILES: Cc1c(COc2ccc(CN3CCCCC3C(=O)NCCOCCOCCOCCNC(=O)CCCCCn3cc(CCCC(=O)NCCCC[C@@H]4NC(=O)[C@@H](Cc5ccc(O)cc5)NC(=O)[C@H](CC(=O)O)NC(=O)CNC(=O)[C@H](CCCNC(=N)N)NC4=O)nn3)cc2Br)cccc1-c1ccccc1 (some centres undefined)

IC50 [2]: 1.4 µM
SMILES: C/C(=N\OCC(=O)Nc1ccc(C)c(F)c1)c1nc(-c2ccccc2)[nH]c1C

IC50 [9]: 0.143 µM
Kd [10]: 0.156 µM
half-life [12]: < 30 min
SMILES: Oc1cc(-c2ccc(C(F)(F)F)cc2)nn1-c1ccccn1

SMILES: CCCCCN(CCCCC)C(C)C(=O)c1cc(C)c2ccc3cc(C(C)C)ccc3c2c1 (centres undefined)
Activity (MC-38): 93.6%
IC50 [3]: 0.096 µM

IC50 [13]: < 0.1 µM
SMILES: CCOC(=O)C(COC(=O)NCCSSCCNC(=O)O/N=C(\Nc1ccc(C)c(O)c1)c1nonc1N)NCc1cc(Cl)c(OCc2cccc(-c3ccccc3)c2Br)cc1OCc1ccnc(C#N)c1 (centres undefined)

IC50 [2]: 4.5 µM
SMILES: O=[N+]([O-])c1cccc(/C=N/OCc2csc(-c3ccccc3)n2)c1

DC50 [7]: < 2 µM
SMILES: COc1ccc2cc3[n+](cc2c1OC)CCc1cc2c(cc1-3)OCO2 [BERBERINE CHLORIDE]

DC50 [7]: < 20 µM
SMILES: Cc1ccc([C@@H]2O[C@H](CO)[C@@H](O)[C@H](O)[C@H]2O)cc1Cc1ccc(-c2ccc(F)cc2)s1 [CANAGLIFLOZIN ANHYDROUS]

DC50 [7]: < 2 µM
SMILES: CN(C)C(=N)NC(=N)N [METFORMIN]

DC50 [7]: < 10 µM
SMILES: O[C@@H](COc1cccc2ncccc12)CN1CCN([C@@H]2c3ccccc3[C@@H]3[C@H](c4ccccc42)C3(F)F)CC1 [ZOSUQUIDAR]

— ChEMBL document CHEMBL6103553, “Small molecule inhibitors targeting PD-L1, CTLA4, VISTA, TIM-3, and LAG3 for cancer immunotherapy (2020-2024)” (Eur J Med Chem, 2025)
